Molecular target: T1, human S1P2 receptor (Homo sapiens, UniProt O95136)
T1 construct: expressed in transfected cells; host or cells: CHO cells (membrane preparation)
Test: GTPγS binding assay (SPA), antagonism of S1P at S1P2
Format: biochemical
Settings: GTP-γ-S binding assay, membranes of CHO cells expressing human S1P2, 5 nM S1P
Protocol: The ability of compounds to antagonise S1P activity at S1P2 and S1P3 receptors was examined using GTPγS binding assays.
Membranes preparations were generated from CHO cells expressing either the human S1P2 or S1P3 receptors by homogenisation of the cell suspension and centrifugation at 40 000 g for 30 minutes at 4° C. The supernatant was removed, pellet re-suspended in a 10 mM HEPES, 10 mM EDTA buffer and centrifuged as above. The pellet was re-suspended and stored at −80° C. until use.
Scintillation proximity assay (SPA) technology was used for the GTPγS binding assays. Serial dilutions of test compounds were placed in a 96-well optiplate with 5 nM S1P, 1.25 μg membrane, 0.5 mg SPA beads, 0.3 μM GDP and 100 μM sodium orthovanidate, per well. The assay components were incubated for 2 hours to ensure equilibrium was attained. The assay was started by the addition of 300 pM [^35S]GTPγS per well and incubated for 60 minutes prior to centrifugation at 3000 rpm for 3 minutes and reading of a Packard TopCount.
Data were analysed using Activity Base (IDBS, UK) by fitting a four parameter logistic curve to generate IC50 values for each compound.

T1 sequence (O95136 whole entry): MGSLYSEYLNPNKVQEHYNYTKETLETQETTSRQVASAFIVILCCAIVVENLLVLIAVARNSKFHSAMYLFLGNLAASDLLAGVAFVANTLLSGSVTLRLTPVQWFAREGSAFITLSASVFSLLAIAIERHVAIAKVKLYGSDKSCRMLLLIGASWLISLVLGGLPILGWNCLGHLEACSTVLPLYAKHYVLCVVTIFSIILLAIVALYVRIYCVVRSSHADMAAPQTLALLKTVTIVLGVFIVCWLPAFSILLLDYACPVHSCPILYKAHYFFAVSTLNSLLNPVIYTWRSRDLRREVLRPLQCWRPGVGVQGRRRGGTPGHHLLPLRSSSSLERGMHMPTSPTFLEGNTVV

First: COc1cc(OC)c(NC(=O)Cn2c(=O)n(-c3ccc(CC(=O)NCCc4ccccc4)cc3)c(=O)c3ccccc32)cc1Cl [Example 2-1, 2-(4-{1-[(5-Chloro-2,4-dimethoxy-phenylcarbamoyl)-methyl]-2,4-dioxo-1,4-dihydro-2H-quinazolin-3-yl}-phenyl)-N-phenethyl-acetamide]
Second: COc1cc(OC)c(NC(=O)Cn2c(=O)n(CC(=O)NCCc3cccnc3)c(=O)c3ccccc32)cc1Cl [Example 1-13, N-(5-Chloro-2,4-dimethoxy-phenyl)-2-{2,4-dioxo-3-[(2-pyridin-3-yl-ethylcarbamoyl)-methyl]-3,4-dihydro-2H-quinazolin-1-yl}-acetamide]
The Kb of the first is 1.9-fold higher: 3.6 nM for the first, 1.9 nM for the second.

First: COc1cc(OC)c(NC(=O)Cn2c(=O)n(CC(=O)O)c(=O)c3ccccc32)cc1Cl [Example 1-1, {1-[(5-Chloro-2,4-dimethoxy-phenylcarbamoyl)-methyl]-2,4-dioxo-1,4-dihydro-2H-quinazolin-3-yl}-acetic acid]
Second: CCOc1ccc(C(=O)Cn2c(=O)n(CCCC(=O)NC3CCCC3)c(=O)c3cc(Cl)ccc32)cc1Cl [Compound 3-4, 4-{6-Chloro-1-[2-(3-chloro-4-ethoxy-phenyl)-2-oxo-ethyl]-2,4-dioxo-1,4-dihydro-2H quinazolin-3-yl}-N-cyclopentyl-butyramide]
The Kb of the first is 6-fold lower: 0.8 nM for the first, 4.8 nM for the second.

Molecular target: T2, human S1P4 (Homo sapiens, UniProt O95977)
T2 construct: expressed in transfected cells; host or cells: CHO (Chinese Hamster Ovary) S1P4/Gα16 cell clone
T2 sequence (O95977 1-384): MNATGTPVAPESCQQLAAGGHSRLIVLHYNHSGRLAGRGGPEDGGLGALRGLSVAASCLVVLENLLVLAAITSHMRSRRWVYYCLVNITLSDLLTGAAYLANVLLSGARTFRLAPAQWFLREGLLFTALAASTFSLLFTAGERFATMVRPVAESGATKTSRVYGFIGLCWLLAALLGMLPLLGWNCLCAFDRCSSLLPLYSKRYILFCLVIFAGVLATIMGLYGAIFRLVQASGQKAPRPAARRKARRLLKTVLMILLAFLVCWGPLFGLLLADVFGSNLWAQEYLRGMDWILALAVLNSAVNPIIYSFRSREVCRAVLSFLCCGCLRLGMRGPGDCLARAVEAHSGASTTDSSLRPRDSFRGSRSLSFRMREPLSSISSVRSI
Test: CHO Gα16 S1P4 intracellular Ca2+ (FLIPR) assay
Format: cell-based
Settings: relative antagonism of S1P (EC80) induced Ca2+ change, CHO S1P4/Gα16 cells
Protocol: The cells are plated in 384 well black plates (10′000 cells per well). […] After washing, the cells are transferred to the FLIPR. […] This allows the determination of the maximal fluorescence (Fmax).

First: COc1cc(OC)c(NC(=O)Cn2c(=O)n(CC(=O)OC(C)(C)C)c(=O)c3ccccc32)cc1Cl [Example 1-37, {1-[(5-Chloro-2,4-dimethoxy-phenylcarbamoyl)-methyl]-2,4-dioxo-1,4-dihydro-2H-quinazolin-3-yl}-acetic acid tert butyl ester]
Second: COc1cc(OC)c(NC(=O)Cn2c(=O)n(CC(=O)NCCc3ccccc3)c(=O)c3ccccc32)cc1Cl [Example 1-35, 2-{1-[(5-Chloro-2,4-dimethoxy-phenylcarbamoyl)-methyl]-2,4-dioxo-1,4-dihydro-2H-quinazolin-3-yl}-N-phenethyl-acetamide]
The IC50 of the first is 59-fold higher: 880 nM for the first, 15 nM for the second. The second is the more potent here.
